From patent publication US11214803B2, “Modulators of YAP1 expression” (Ionis Pharmaceuticals, Inc., priority 2019, dated 2022)
Marks after values point to notes of the source that are not given here.

Legend:
[1] = test system: SNU449 cells; assay: Cell proliferation assay in SNU449 cells in combination with sorafenib, CellTiter-Glo (Example 48); type: cell-based, human; conditions: 144 hours
Procedure: Modified oligonucleotides described in the studies above were tested at various doses in hepatocellular carcinoma cell line SNU449. ION No. 792169, described herein above, was used as a control modified oligonucleotide. ION No. 715487 was used to target Yap1 RNA. […] After approximately 48 hours, Yap1 mRNA levels were measured.
144 hours post treatment, proliferation of SNU449 cells was measured using the luminescent cell viability CellTiter-Glo® 2.0 Assay (Promega). Results are presented in the tables below as percent control of the amount of luminescence in samples treated with modified oligonucleotides relative to untreated control cells (% UTC).

[2] = test system: SNU449 xenograft tumor; assay: Tumor volume in SNU449 xenograft tumor model (first Example 30); type: in vivo, human; conditions: 50 mg/kg
Procedure: Modified oligonucleotides described in the studies above were tested in a hepatocellular carcinoma SNU449 xenograft tumor model. A control oligonucleotide 792169 was also tested.
Five million SNU449 cells in 30% matrigel were implanted subcutaneously into the fatpads of female NOD.Cg-Prkdcscid II2rgtmlWjl/SzJ mice (from Jackson Laboratory) at 4-6 weeks of age. 43 days post implantation (when tumors had reached approximately 100 mm^3 in size), groups of eight mice each were administered with 50 mg/kg modified oligonucleotide daily for 10 days (loading dose), following which they were administered with 50 mg/kg modified oligonucleotide four times a week for one week, following which they were dosed with 50 mg/kg modified oligonucleotide thrice weekly until the end of the study. Animals were sacrificed and tumors were collected on day 119 post implantation. Yap1 mRNA knockdown in tumors was measured by RT-qPCR as previously described using the Human Yap1 primer-probe set RTS4814. Yap1 mRNA levels were normalized to actin-beta content, as measured by primer probe set RTS5002. Results are presented in the tables below as percent control of the amount of Yap1 mRNA relative to PBS treated animals (% control).
Tumor volumes were also measured at the indicated days in the table below

[3] = test system: ERK1/2; assay: Measurement of ERK activation (pERK/ERK) in SNU449 xenograft model with sorafenib (second Example 30); type: in vivo, human; conditions: SNU449 xenograft tumors, pERK/ERK relative to PBS control, oligonucleotide 50 mg/kg, sorafenib 30 mg/kg orally
Procedure: Five million SNU449 cells in 30% matrigel were implanted subcutaneously into the fatpads of female NOD.Cg-Prkdcscid II2rgtmlWjl/SzJ mice (from Jackson Laboratory) at 4-6 weeks of age. 43 days post implantation (when tumors had reached approximately 100 mm^3 in size), groups of eight mice each were administered with 50 mg/kg modified oligonucleotide daily for 10 days (loading dose), following which they were administered with 50 mg/kg modified oligonucleotide four times a week for one week, following which they were dosed with 50 mg/kg modified oligonucleotide thrice weekly until the end of the study.
Protein analysis was carried out using standard procedures. […] ERK protein levels were compared to internal control GAPDH. […] The secondary antibody used was donkey anti-rabbit NA934, GE Healthcare. pERK/ERK levels were calculated relative to PBS control to determine % activation of ERK1/2.

[4] = Tolerability in Sprague-Dawley rats, body and organ weights (Example 21); type: in vivo; conditions: male Sprague-Dawley rats, 50 mg/kg s.c. weekly for 6 weeks (7 doses)
Procedure: Terminal body weight was measured prior to necropsy. Ionis oligonucleotides that caused any changes in organ weights outside the expected range for modified oligonucleotides were excluded from further studies.

[5] = day 101 post tumor implantation
[6] = day 105 post tumor implantation
[7] = day 108 post tumor implantation
[8] = day 119 post tumor implantation

**Q.** For “CGCCGATAAGGTACAC (cEt gapmer, phosphorothioate backbone, further chemistry not given here) [ION 792169, reference compound]”, which “Antiproliferative effect (cell proliferation, luminescence)” value (from here on “Antiproliferative effect”) ([1]; oligonucleotide at 0.04 uM, sorafenib 0 uM) is on record?
**A.** 99 % UTC

**Q.** And the “Antiproliferative effect” value ([1]; oligonucleotide at 0.04 uM, sorafenib 0.37 uM)?
**A.** 103 % UTC

**Q.** What about the “Antiproliferative effect” value ([1]; oligonucleotide at 0.04 uM, sorafenib 3.33 uM) of the same substance?
**A.** 51 % UTC

**Q.** What about the “Antiproliferative effect” value ([1]; oligonucleotide at 0.04 uM, sorafenib 10 uM) of the same substance?
**A.** 3 % UTC

**Q.** What about the “Antiproliferative effect” value ([1]; oligonucleotide at 0.04 uM, sorafenib […]) of the same substance?
**A.** 97 % UTC

**Q.** What about the “Antiproliferative effect” value ([1]; oligonucleotide at 0.2 uM, sorafenib 0 uM) of the same substance?
**A.** 97 % UTC

**Q.** And the “Antiproliferative effect” value ([1]; oligonucleotide at 0.2 uM, sorafenib 0.37 uM)?
**A.** 100 % UTC

**Q.** What about the “Antiproliferative effect” value ([1]; oligonucleotide at 0.2 uM, sorafenib 3.33 uM) of the same substance?
**A.** 30 % UTC

**Q.** And the “Antiproliferative effect” value ([1]; oligonucleotide at 0.2 uM, sorafenib 10 uM)?
**A.** 4 % UTC

**Q.** What about the “Antiproliferative effect” value ([1]; oligonucleotide at 0.2 uM, sorafenib […]) of the same substance?
**A.** 91 % UTC

**Q.** And the “Antiproliferative effect” value ([1]; oligonucleotide at 1 uM, sorafenib 0 uM)?
**A.** 97 % UTC

**Q.** And the “Antiproliferative effect” value ([1]; oligonucleotide at 1 uM, sorafenib 0.37 uM)?
**A.** 95 % UTC

**Q.** And the “Antiproliferative effect” value ([1]; oligonucleotide at 1 uM, sorafenib 3.33 uM)?
**A.** 27 % UTC

**Q.** And the “Antiproliferative effect” value ([1]; oligonucleotide at 1 uM, sorafenib 10 uM)?
**A.** 3 % UTC

**Q.** What about the “Antiproliferative effect” value ([1]; oligonucleotide at 1 uM, sorafenib […]) of the same substance?
**A.** 89 % UTC

**Q.** And the “Antiproliferative effect” value ([1]; oligonucleotide at 5 uM, sorafenib 0 uM)?
**A.** 86 % UTC

**Q.** What about the “Antiproliferative effect” value ([1]; oligonucleotide at 5 uM, sorafenib 0.37 uM) of the same substance?
**A.** 84 % UTC

**Q.** And the “Antiproliferative effect” value ([1]; oligonucleotide at 5 uM, sorafenib 3.33 uM)?
**A.** 6 % UTC

**Q.** And the “Antiproliferative effect” value ([1]; oligonucleotide at 5 uM, sorafenib 10 uM)?
**A.** 1 % UTC

**Q.** And the “Antiproliferative effect” value ([1]; oligonucleotide at 5 uM, sorafenib […])?
**A.** 68 % UTC

**Q.** And the “Average Tumor Volume” value ([2]; day 43 post tumor implantation)?
**A.** 111 mm^3

**Q.** And the “Average Tumor Volume” value ([2]; day 46 post tumor implantation)?
**A.** 162 mm^3

**Q.** And the “Average Tumor Volume” value ([2]; day 50 post tumor implantation)?
**A.** 180 mm^3

**Q.** What about the “Average Tumor Volume” value ([2]; day 53 post tumor implantation) of the same substance?
**A.** 247 mm^3

**Q.** What about the “Average Tumor Volume” value ([2]; day 57 post tumor implantation) of the same substance?
**A.** 280 mm^3

**Q.** And the “Average Tumor Volume” value ([2]; day 60 post tumor implantation)?
**A.** 317 mm^3

**Q.** What about the “Average Tumor Volume” value ([2]; day 64 post tumor implantation) of the same substance?
**A.** 397 mm^3

**Q.** And the “Average Tumor Volume” value ([2]; day 67 post tumor implantation)?
**A.** 466 mm^3

**Q.** What about the “Average Tumor Volume” value ([2]; day 71 post tumor implantation) of the same substance?
**A.** 519 mm^3

**Q.** What about the “Average Tumor Volume” value ([2]; day 75 post tumor implantation) of the same substance?
**A.** 559 mm^3

**Q.** What about the “Average Tumor Volume” value ([2]; day 78 post tumor implantation) of the same substance?
**A.** 634 mm^3

**Q.** What about the “Average Tumor Volume” value ([2]; day 81 post tumor implantation) of the same substance?
**A.** 681 mm^3

**Q.** And the “Average Tumor Volume” value ([2]; day 85 post tumor implantation)?
**A.** 785 mm^3

**Q.** What about the “Average Tumor Volume” value ([2]; day 88 post tumor implantation) of the same substance?
**A.** 889 mm^3

**Q.** And the “Average Tumor Volume” value ([2]; day 92 post tumor implantation)?
**A.** 1170 mm^3

**Q.** And the “Average Tumor Volume” value ([2]; day 94 post tumor implantation)?
**A.** 1215 mm^3

**Q.** And the “Average Tumor Volume” value ([2]; day 98 post tumor implantation)?
**A.** 1355 mm^3

**Q.** What about the “Average Tumor Volume” value [2, 5] of the same substance?
**A.** 1417 mm^3

**Q.** What about the “Average Tumor Volume” value [2, 6] of the same substance?
**A.** 1509 mm^3

**Q.** What about the “Average Tumor Volume” value [2, 7] of the same substance?
**A.** 1571 mm^3

**Q.** What about the “Average Tumor Volume” value [2, 8] of the same substance?
**A.** 1697* mm^3

**Q.** What about the “% activation of ERK1/2” value [3] of the same substance?
**A.** 100%

**Q.** For “1198440 (AAGTGTATGTCAGAAG; cEt, 2'-MOE, 5-methylcytosine, phosphorothioate modifications, further chemistry not given here) [compound 1198440]”, which “Average Tumor Volume” value ([2]; day 43 post tumor implantation) is on record?
**A.** 111 mm^3

**Q.** What about the “Average Tumor Volume” value ([2]; day 46 post tumor implantation) of the same substance?
**A.** 152 mm^3

**Q.** And the “Average Tumor Volume” value ([2]; day 50 post tumor implantation)?
**A.** 168 mm^3

**Q.** And the “Average Tumor Volume” value ([2]; day 53 post tumor implantation)?
**A.** 201 mm^3

**Q.** What about the “Average Tumor Volume” value ([2]; day 57 post tumor implantation) of the same substance?
**A.** 242 mm^3

**Q.** What about the “Average Tumor Volume” value ([2]; day 60 post tumor implantation) of the same substance?
**A.** 263 mm^3

**Q.** What about the “Average Tumor Volume” value ([2]; day 64 post tumor implantation) of the same substance?
**A.** 338 mm^3

**Q.** And the “Average Tumor Volume” value ([2]; day 67 post tumor implantation)?
**A.** 376 mm^3

**Q.** What about the “Average Tumor Volume” value ([2]; day 71 post tumor implantation) of the same substance?
**A.** 373 mm^3

**Q.** And the “Average Tumor Volume” value ([2]; day 75 post tumor implantation)?
**A.** 401 mm^3

**Q.** And the “Average Tumor Volume” value ([2]; day 78 post tumor implantation)?
**A.** 429 mm^3

**Q.** And the “Average Tumor Volume” value ([2]; day 81 post tumor implantation)?
**A.** 514 mm^3

**Q.** And the “Average Tumor Volume” value ([2]; day 85 post tumor implantation)?
**A.** 606 mm^3

**Q.** And the “Average Tumor Volume” value ([2]; day 88 post tumor implantation)?
**A.** 613 mm^3

**Q.** And the “Average Tumor Volume” value ([2]; day 92 post tumor implantation)?
**A.** 690 mm^3

**Q.** And the “Average Tumor Volume” value ([2]; day 94 post tumor implantation)?
**A.** 773 mm^3

**Q.** And the “Average Tumor Volume” value ([2]; day 98 post tumor implantation)?
**A.** 804 mm^3

**Q.** What about the “Average Tumor Volume” value [2, 5] of the same substance?
**A.** 818 mm^3

**Q.** What about the “Average Tumor Volume” value [2, 6] of the same substance?
**A.** 894 mm^3

**Q.** What about the “Average Tumor Volume” value [2, 7] of the same substance?
**A.** 921 mm^3

**Q.** And the “Average Tumor Volume” value [2, 8]?
**A.** 978 mm^3

**Q.** What about the “% activation of ERK1/2” value [3] of the same substance?
**A.** 88%

**Q.** And the Kidney weight ([4]; end of study)?
**A.** 3.29 g

**Q.** And the Liver weight ([4]; end of study)?
**A.** 18 g

**Q.** And the Spleen weight ([4]; end of study)?
**A.** 2.78 g

**Q.** What about the body weight ([4]; terminal, prior to necropsy) of the same substance?
**A.** 373 g
